In ChEMBL document CHEMBL2073936, “A novel human hepatic organic anion transporting polypeptide (OATP2). Identification of a liver-specific human organic anion transporting polypeptide and identification of rat and human hydroxymethylglutaryl-CoA reductase inhibitor transporters” (J Biol Chem, 1999) one finds Activity data, which are given here for one molecule.

Assay type in all cases: functional, cell-based
Series [1] concerns the target T1, Solute carrier organic anion transporter family member 1A1 (Rattus norvegicus, UniProt P46720).
T1 sequence (P46720 whole entry): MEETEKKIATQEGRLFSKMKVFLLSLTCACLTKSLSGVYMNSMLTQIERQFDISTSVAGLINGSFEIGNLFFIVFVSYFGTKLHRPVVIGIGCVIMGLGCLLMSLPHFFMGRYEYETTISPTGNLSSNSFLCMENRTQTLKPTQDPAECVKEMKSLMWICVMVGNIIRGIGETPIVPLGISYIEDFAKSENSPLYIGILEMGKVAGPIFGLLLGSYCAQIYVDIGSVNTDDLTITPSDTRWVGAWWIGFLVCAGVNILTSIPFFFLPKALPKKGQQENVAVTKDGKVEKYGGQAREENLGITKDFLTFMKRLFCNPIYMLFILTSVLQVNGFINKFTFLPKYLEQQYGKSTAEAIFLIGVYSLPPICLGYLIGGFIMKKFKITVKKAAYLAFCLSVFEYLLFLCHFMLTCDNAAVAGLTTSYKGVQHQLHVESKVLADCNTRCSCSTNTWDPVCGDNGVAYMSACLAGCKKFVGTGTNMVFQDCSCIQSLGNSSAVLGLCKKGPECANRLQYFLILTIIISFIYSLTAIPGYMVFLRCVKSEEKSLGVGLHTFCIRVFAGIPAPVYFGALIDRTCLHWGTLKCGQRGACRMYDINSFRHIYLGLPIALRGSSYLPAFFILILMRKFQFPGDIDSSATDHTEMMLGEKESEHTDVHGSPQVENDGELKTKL
As to the kind of experiment: TP_TRANSPORTER: inhibition of Taurocholate uptake (Taurocholate: 0.5 uM, Pravastatin: 50 uM) in Oatp1-expressing 293c18 cells. The following applies: human, hek293-ebna.

Series [2] addresses T2, Solute carrier organic anion transporter family member 1A2 (Homo sapiens, UniProt P46721).
T2 sequence (P46721 whole entry): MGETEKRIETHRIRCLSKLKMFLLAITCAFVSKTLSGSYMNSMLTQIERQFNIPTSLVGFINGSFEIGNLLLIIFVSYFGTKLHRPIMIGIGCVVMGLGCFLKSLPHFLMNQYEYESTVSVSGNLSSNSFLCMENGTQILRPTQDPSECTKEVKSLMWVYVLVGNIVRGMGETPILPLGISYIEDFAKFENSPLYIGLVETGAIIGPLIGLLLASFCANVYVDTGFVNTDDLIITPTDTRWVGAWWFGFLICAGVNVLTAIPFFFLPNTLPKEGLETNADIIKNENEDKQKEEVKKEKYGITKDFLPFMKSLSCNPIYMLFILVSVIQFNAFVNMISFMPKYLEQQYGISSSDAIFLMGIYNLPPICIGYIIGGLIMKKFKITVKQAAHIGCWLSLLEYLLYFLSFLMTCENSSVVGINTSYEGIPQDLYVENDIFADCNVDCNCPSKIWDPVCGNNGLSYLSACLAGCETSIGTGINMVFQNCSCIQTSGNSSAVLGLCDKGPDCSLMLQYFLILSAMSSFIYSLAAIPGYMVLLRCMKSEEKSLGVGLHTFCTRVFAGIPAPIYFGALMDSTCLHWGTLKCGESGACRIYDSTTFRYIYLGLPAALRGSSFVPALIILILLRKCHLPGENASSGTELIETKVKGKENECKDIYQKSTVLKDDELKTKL
The series is described as follows: TP_TRANSPORTER: uptake in OATP-A-expressing 293c18 cell. The following applies: hek293-ebna.

Series [3] concerns the target T3, Solute carrier organic anion transporter family member 1A4 (Rattus norvegicus, UniProt O35913).
T3 sequence (O35913 whole entry): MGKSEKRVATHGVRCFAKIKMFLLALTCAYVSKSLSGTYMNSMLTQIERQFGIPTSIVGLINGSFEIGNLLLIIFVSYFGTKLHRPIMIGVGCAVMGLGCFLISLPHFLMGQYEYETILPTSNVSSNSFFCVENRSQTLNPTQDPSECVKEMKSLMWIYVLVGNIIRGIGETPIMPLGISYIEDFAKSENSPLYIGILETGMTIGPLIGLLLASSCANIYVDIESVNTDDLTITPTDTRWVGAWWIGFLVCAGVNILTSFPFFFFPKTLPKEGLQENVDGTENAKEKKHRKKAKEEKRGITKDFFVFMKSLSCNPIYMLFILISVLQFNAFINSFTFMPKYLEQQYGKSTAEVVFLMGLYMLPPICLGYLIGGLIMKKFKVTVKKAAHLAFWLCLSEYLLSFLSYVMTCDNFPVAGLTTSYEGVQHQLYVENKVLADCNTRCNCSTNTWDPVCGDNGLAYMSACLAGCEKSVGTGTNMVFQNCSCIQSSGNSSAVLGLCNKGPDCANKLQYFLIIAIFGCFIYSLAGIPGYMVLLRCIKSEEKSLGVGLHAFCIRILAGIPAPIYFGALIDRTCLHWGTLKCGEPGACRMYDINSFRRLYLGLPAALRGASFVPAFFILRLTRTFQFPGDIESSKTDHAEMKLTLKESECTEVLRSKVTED
As to the kind of experiment: TP_TRANSPORTER: uptake in Oatp2-expressing 293c18 cells. The following applies: human, hek293-ebna.

Consider `CC[C@H](C)C(=O)O[C@H]1C[C@H](O)C=C2C=C[C@H](C)[C@H](CC[C@@H](O)C[C@@H](O)CC(=O)O)[C@H]21` [PRAVASTATIN], for which the figures for the Activity entry in series [1], in series [2] and in series [3] were “inhibitor [+]”, “is not a substrate [-]” and “is not a substrate [-]”, respectively.
